Measured values: patent US20150352037A1, “ANTI-AGING COMPOSITION FOR VITALIZATION OF RETINOIC ACID RECEPTOR THAT CONTAINS MIXED EXTRACT OF CHINESE MATRIMONY VINE AND PINE NEEDLES AS EFFECTIVE COMPONENT” (Amorepacific Corporation, priority 2011, published 2015)

Tests used:
Assay type in all cases: cell-based
collagenase = assay: Inhibition of collagenase expression (collagenase production) in human fibroblasts, ELISA absorbance at 405 nm; conditions: 24 h treatment, extracts 100 μg/ml (Example 3: 100 μg/ml of each extract), retinoic acid 1 μM, untreated control = 100
Procedure: Using the Lycium chinense fruit extract obtained in Example 1, the pine tree extract obtained in Example 2, and a 1:1 (w/w) mixture (Example 3) of a Lycium chinense fruit extract obtained by extracting 100 g of Lycium chinense fruits according to the method of Example 1 and a pine needle extract obtained by extracting 100 g of pine needles according to the method of Example 2, their effects on the inhibition of collagenase expression (collagenase production) were measured in the following manner. As a positive control, retinoic acid known to inhibit collagenase expression was used. […]
Next, the degree of collagenase production in each of the harvested cell cultures was measured using a collagenase measurement device (Amersham Phamasia, USA). […]
The absorbance of the 96-well plate having a yellow color was measured at 405 nm using an absorbance spectrometer, and the expression of collagenase was calculated using the following Equation 1. Herein, the absorbance of an untreated group was used as a control group. That is, the expression of collagenase in the control group was set at 100, and the expression of collagenase in each test group was calculated relative to the control group. […]
wherein A is the absorbance of the cell group treated with each test material, and B is the absorbance of the control group.

[1] = molecular target: T1, retinoic acid receptor α (RAR-α) (Homo sapiens, UniProt P10276); assay: Retinoic acid receptor α transcriptional activity, luciferase reporter in transfected CV-1 cells; conditions: monkey kidney epithelial CV-1 cells, 20 h; extracts 100 μg/ml (Example 3: 100 μg/ml of each extract), retinoic acid 1 μM; corrected with β-galactosidase activity; control = 100
T1 construct: expressed in transfected cells; host or cells: monkey kidney epithelial CV-1 cells
T1 sequence (P10276 1-462): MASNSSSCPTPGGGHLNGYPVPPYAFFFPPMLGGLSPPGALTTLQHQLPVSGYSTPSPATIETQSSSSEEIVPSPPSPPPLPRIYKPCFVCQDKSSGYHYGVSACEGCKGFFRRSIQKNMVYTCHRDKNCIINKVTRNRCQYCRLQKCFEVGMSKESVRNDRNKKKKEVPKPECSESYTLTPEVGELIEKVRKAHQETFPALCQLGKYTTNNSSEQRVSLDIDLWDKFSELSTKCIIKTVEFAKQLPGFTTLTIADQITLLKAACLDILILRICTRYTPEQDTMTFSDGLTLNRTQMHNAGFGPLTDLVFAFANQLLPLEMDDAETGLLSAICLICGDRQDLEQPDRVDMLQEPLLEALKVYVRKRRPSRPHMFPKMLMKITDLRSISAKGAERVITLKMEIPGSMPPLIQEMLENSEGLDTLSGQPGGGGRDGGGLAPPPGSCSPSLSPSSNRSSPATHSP
Procedure: (§1) Using the Lycium chinense extract obtained in Example 1, the pine needle extract obtained in Example 2, and the Lycium chinense extract/pine needle extract mixture (Example 3) obtained by mixing the extract of Example 1 with the extract of Example 2, their effects on retinoic acid receptor α/γ (RAR-α/γ) transcriptional activities were measured in the following manner. As a positive control, retinoic acid known to activate retinoic acid receptor was used.
(§2) First, monkey kidney epithelial CV-1 cells were seeded into a 24-well plate at a concentration of 4×10^4 cells/well and cultured for 12-16 hours. Before transfection, the plate was washed with phosphate buffered saline (PBS), and then the medium was cultured. […] Then, each of the cell lysates was transferred to a cell culture plate (Costar) for a 96-well luminometer, and luciferase activity for each cell lysate was measured using Luciferase Assay System™ kit (Promega Corporation) according to the manufacturer's instruction. […]
(§3) Next, 50 μl of 1 M sodium carbonate (Na2CO3) solution was added to each well, and the absorbance of each well at 415 nm was measured. The efficiency of transformation in each cell lysate was corrected with the β-galactosidase activity measured as described above, and the relative activity of luciferase to the β-galactosidase activity was calculated and compared between Examples.

[2] = molecular target: T2, retinoic acid receptor γ (RAR-γ) (Homo sapiens, UniProt P13631); assay: Retinoic acid receptor γ transcriptional activity, luciferase reporter in transfected CV-1 cells; conditions: monkey kidney epithelial CV-1 cells, 20 h; extracts 100 μg/ml (Example 3: 100 μg/ml of each extract), retinoic acid 1 μM; corrected with β-galactosidase activity; control = 100
T2 construct: expressed in transfected cells; host or cells: monkey kidney epithelial CV-1 cells
T2 sequence (P13631 1-454): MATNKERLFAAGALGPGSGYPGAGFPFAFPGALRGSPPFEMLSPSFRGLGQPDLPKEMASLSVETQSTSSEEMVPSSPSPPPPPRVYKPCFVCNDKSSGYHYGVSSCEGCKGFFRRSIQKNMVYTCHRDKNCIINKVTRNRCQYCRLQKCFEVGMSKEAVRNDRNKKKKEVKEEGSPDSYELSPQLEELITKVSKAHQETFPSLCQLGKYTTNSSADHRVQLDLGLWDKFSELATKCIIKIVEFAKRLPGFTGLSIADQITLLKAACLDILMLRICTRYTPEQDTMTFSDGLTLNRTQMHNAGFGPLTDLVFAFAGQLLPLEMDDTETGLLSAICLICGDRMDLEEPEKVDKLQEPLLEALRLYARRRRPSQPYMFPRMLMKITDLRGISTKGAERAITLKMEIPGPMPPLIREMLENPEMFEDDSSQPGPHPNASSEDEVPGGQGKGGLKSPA
Procedure: as §1, §2, §3

CC1=C(/C=C/C(C)=C/C=C/C(C)=C/C(=O)O)C(C)(C)CCC1 [Retinoic acid, retinoic acid]
Collagenase expression (%) (collagenase): 51.3%
Relative activity (%) of luciferase (RAR-α) [1]: 343%
Relative activity (%) of luciferase (RAR-γ) [2]: 385%
